Where a SMILES comes first, the peptide text is derived from it. [ ]: non-standard residue; d: D form. The star is where a group is joined. DOTA = O=C(O)CN1CCN(CC(=O)O)CCN(CC(=O)*)CCN(CC(=O)O)CC1; 1Nal = N[C@@H](Cc1cccc2ccccc12)C(=O)O; NMeNle = CCCC[C@H](NC)C(=O)O
Key:
[1] = Metabolic studies in BALB/c mice (intact radiopeptide by radio-HPLC); assay type: in vivo; conditions: i.v., 2 nmol, 10 min p.i., two animals per peptide
Procedure: All animal experiments were approved by the Austrian Ministry of Science (BMWF-66.011/0075- WF/V/3b/2016) and performed in accordance with the Austrian Animal Protection Act. Metabolic studies characterizing the stability of selected radioligands against enzymatic degradation were carried out in 7 to 8 week old female BALB/c mice (Charles River, Sulzfeld, Germany). The mice (two animals for each peptide) were intravenously injected into a lateral tail vein with 5–10 MBq of the ^111In-labeled peptide derivatives, corresponding to 2 nmol total peptide. At the time point of 10 min p.i. the animals were euthanatized by cervical dislocation. A sample of urine and blood was immediately collected. Liver and kidneys were dissected, mixed with 20 mM HEPES buffer pH 7.3 (1:1, w/v) and homogenized using an Ultra-Turrax T8 homogenizer (IKA-Werke, Staufen, Germany) for 1 min. All samples taken were analyzed by analytical HPLC using the low-sensitivity loop for urine and the high-sensitivity loop for blood, liver and kidney. Before injection into the HPLC system, all samples except urine were treated with ACN and diluted with water as described for stability studies in human serum. The percentage of intact radiopeptide in the analyzed samples was calculated by integration of the different peaks found in the radiochromatogram using Chromeleon Dionex Software (Version 7.2.9.11323).

[2] = system: A431-CCK2R and A431-mock xenografts; experiment: Biodistribution in BALB/c nude mice bearing A431-CCK2R/A431-mock xenografts; assay type: in vivo; conditions: xenografted BALB/c nude mice, i.v., ~20 pmol, 4 h p.i. (indium-111 or lutetium-177), mean ± SD n = 4
In short: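 Female athymic BALB/c nude mice carrying subcutaneous A431-CCK2R and A431-mock tumors (~0.25 g) received ~20 pmol radiopeptide i.v. (150–200 kBq; ~0.5 MBq for gallium-68/lutetium-177 studies), n = 4. Tissues γ-counted at 1 h (gallium-68) or 4 h p.i. (indium-111/lutetium-177); expressed as % IA/g and tumor-to-organ ratios.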

[3] = cited from earlier work
Procedure: (−2.33 ± 0.23) > [^111In]In-DOTA-MGS5 (−2.0 ± 0.1) > [^111In]In-DOTA-[2Nal^8]MGS5 (−1.71 ± 0.19) > [^111In]In-DOTA-[DLys^1]MGS5 (−1.31 ± 0.11). […] For the time point of 24 h after incubation, lowest values were found for [^111In] ...

[4] = biological target: T1, human CCK2R (Homo sapiens, UniProt P32239); experiment: Calcium mobilization assay (fluo-4 AM) on A431-CCK2R cells; assay type: cell-based; conditions: normalized to 10^−6 M pentagastrin, mean ± SEM of at least three independent experiments in triplicates
T1 construct: expressed in transfected cells; host or cells: A431 human epidermoid carcinoma cells, stably transfected (A431-CCK2R); originally provided by Dr. Luigi Aloj
T1 sequence (P32239 1-447): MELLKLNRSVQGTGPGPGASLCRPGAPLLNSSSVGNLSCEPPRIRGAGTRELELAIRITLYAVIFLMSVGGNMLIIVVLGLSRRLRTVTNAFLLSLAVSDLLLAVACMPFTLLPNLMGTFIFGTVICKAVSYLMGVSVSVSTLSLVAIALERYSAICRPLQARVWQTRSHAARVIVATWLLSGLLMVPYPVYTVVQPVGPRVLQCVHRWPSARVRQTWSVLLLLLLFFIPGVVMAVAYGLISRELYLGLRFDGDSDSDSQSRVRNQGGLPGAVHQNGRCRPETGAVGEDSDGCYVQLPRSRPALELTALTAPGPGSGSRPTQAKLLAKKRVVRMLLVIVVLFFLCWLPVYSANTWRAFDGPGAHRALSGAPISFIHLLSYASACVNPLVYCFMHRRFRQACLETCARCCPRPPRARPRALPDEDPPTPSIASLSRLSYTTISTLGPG
Description: A431 human epidermoid carcinoma cells overexpressing human CCK2R through stable transfection (A431-CCK2R) and the same cell line transfected with the empty vector (A431-mock) were used for cell assays. The cells are constantly available in our laboratory and were originally provided by Dr. Luigi Aloj. All cell culture media and reagents were obtained from Invitrogen Corporation (Lofer, Austria) or Sigma-Aldrich (Darmstadt, Germany). Dulbecco’s modified Eagle’s medium (DMEM) supplemented with 10% (v/v) fetal bovine serum and 1% of 100x penicillin−streptomycin−glutamine was used for cell culture. The cells were passaged three times per week using a 10x 2.5% trypsin-EDTA solution in a 1:2–1:3 ratio.
Analog-induced receptor activation was evaluated by a calcium mobilization assay using the calcium-sensitive dye fluo-4 AM (ThermoFisher Scientific, Montigny-Le-Bretonneux, France), as previously described. Briefly, A431-CCK2R cells were seeded (60,000/well) in flat clear bottom black 96-well plates (Corning, Bagneaux-sur-Loing, France) coated with poly-L-ornithine (100 µg/mL, 1 h, 37 °C) (Sigma Aldrich, Saint Quentin Fallavier, France). Cytosolic Ca^2+ variations were measured before and after application of 50 µL of graded concentrations of the investigated peptides in the vicinity of the cells, and the effects on Ca^2+ mobilization were measured. Data were background corrected and normalized for the amplitudes caused by the medium alone (0%, no self-effect) or 10^−6 M pentagastrin (100%, maximal Ca^2+ mobilization response). Prism 4.0 software was used to calculate the EC50 values and the results were expressed as mean ± SEM for at least three independent experiments performed in triplicates.

Row | Intact radiopeptide in kidney ([1]; kidney homogenate) [%] | Intact radiopeptide in liver ([1]; liver homogenate) [%] | Intact radiopeptide in blood [1] [%] | Intact radiopeptide in urine [1] [%] | Uptake in kidneys [2] [%IA/g] | EC50 [4] [nM] | SMILES | LogD [3]
1 | 20.6 ± 3.8 | 82.5 ± 2.4 | 93.9 ± 1.2 | 5.8 ± 0.2 | 20.67 ± 4.37 |  | CCCC[C@@H](C(=O)N[C@@H](CC(=O)O)C(=O)N[C@@H](Cc1cccc2ccccc12)C(N)=O)N(C)C(=O)[C@H](Cc1c[nH]c2ccccc12)NC(=O)CNC(=O)[C@H](Cc1ccc(O)cc1)NC(=O)[C@H](C)NC(=O)[C@@H](CCCCN)NC(=O)CN1CCN(CC(=O)O)CCN(CC(=O)O)CCN(CC(=O)O)CC1 [[^111In]In-DOTA-[DLys^1]MGS5] [metal not drawn] ({DOTA}-[dK]AYGW[NMeNle]D[1Nal]-NH2) | 
2 |  |  |  |  |  | 7.9 ± 1.9 | CCCC[C@@H](C(=O)N[C@@H](CC(=O)O)C(=O)N[C@@H](Cc1cccc2ccccc12)C(N)=O)N(C)C(=O)[C@H](Cc1c[nH]c2ccccc12)NC(=O)CNC(=O)[C@H](Cc1ccc(O)cc1)NC(=O)[C@H](C)NC(=O)[C@@H](CCC(=O)O)NC(=O)CN1CCN(CC(=O)O)CCN(CC(=O)O)CCN(CC(=O)O)CC1 [DOTA-MGS5, DOTA-DGlu-Ala-Tyr-Gly-Trp-(N-Me)Nle-Asp-1Nal-NH2, reference compound] | −2.0 ± 0.1

— paper PMC9959130, “Effects of Side Chain and Peptide Bond Modifications on the Targeting Properties of Stabilized Minigastrin Analogs” (Pharmaceuticals, 2023)
